This is an account of results in ChEMBL document CHEMBL4270672, “Synthesis and Biological Evaluation of Fused Tricyclic Heterocycle Piperazine (Piperidine) Derivatives As Potential Multireceptor Atypical Antipsychotics” (J Med Chem, 2018).

Broadly, the IC50 is the midpoint of a concentration-inhibition curve. In general, Cmax refers to the peak of the concentration-time curve. In general, ED50 refers to the dose that gives a 50% effect, or the effect in half of the subjects. As usually defined, the Ki is the equilibrium dissociation constant of an inhibitor or competing ligand from its target. Low values mean higher affinity, high ones lower affinity. The term bioavailability denotes the share of a dose that reaches the circulation, judged against a reference dose that is usually intravenous. By AUC(0-t) is commonly meant the area under the concentration-time curve up to a stated or last time point. A word on the inhibition: it is the share of the control response that was lost under treatment. What is called Tmax is the time at which the peak concentration occurs.

One data set concerns the target D(1A) dopamine receptor (Homo sapiens, UniProt P21728). The experiment in a line: Antagonist activity at human dopamine D1 receptor expressed in HEK293T cells assessed as inhibition of dopamine-induced cAMP accumulation preincubated for 15 mins followed by dopamine induction and measured after 30 mins by HTRF assay. The data set is classed as functional, cell-based.

Data set [1] deals with Mus musculus. In words: Induction of serum prolactin levels in Kunming mouse at 0.6 to 5.4 mg/kg, po administered for 28 days measured at 180 mins post last dose by EIA. The class given is organism-based. The following applies: in vivo, 3 h.
The nature of data set [2]: Cmax in Sprague-Dawley rat at 10 mg/kg, po by LC-MS/MS analysis. The data set is classed as ADME, organism-based. More on the design: dose 10 mg/kg, route oral. The following applies: in vivo.
The target in data set [3] is T1, 5-hydroxytryptamine receptor 2A (Homo sapiens, UniProt P28223).
T1 sequence (P28223 whole entry): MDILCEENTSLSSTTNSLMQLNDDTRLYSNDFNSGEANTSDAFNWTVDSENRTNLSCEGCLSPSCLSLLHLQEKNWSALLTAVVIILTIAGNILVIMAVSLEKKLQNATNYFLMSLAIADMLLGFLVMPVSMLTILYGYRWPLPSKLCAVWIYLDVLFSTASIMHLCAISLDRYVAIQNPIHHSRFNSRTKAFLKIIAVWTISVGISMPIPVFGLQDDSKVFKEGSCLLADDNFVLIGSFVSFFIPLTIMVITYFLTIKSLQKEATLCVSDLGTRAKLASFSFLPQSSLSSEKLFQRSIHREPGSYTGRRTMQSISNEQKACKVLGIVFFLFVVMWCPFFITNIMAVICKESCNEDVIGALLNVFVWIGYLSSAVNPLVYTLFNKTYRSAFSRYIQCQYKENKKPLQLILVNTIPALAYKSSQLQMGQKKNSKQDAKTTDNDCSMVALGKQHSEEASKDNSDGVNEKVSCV
Data set [4] has as its system Mus musculus. The experiment in a line: Induction of catalepsy in po dosed Kunming mouse measured after 60 secs. The data set is classed as organism-based. The following applies: in vivo, 1 min.
Data set [5] concerns the target 5-hydroxytryptamine receptor 7 (Rattus norvegicus, UniProt P32305). In words: Displacement of [3H]-5-CT from 5-HT7 receptor in rat cerebral cortex homogenates after 30 mins by liquid scintillation counting.
Data set [6] in a line: Oral bioavailability in Sprague-Dawley rat at 10 mg/kg by LC-MS/MS analysis. The settings on record: in vivo. The data set is classed as ADME, organism-based.
Data set [7] is described as follows: AUC (0 to t) in Sprague-Dawley rat at 10 mg/kg, po by LC-MS/MS analysis. The class given is ADME, organism-based. The settings on record: in vivo.
Data set [8] concerns the target T1, 5-hydroxytryptamine receptor 2A. In words: Antagonist activity at serotonin 5-HT2A receptor (unknown origin) expressed in HEK293 cells assessed as inhibition of serotonin-induced calcium flux at 10 uM after 15 mins by calcium 4-dye based FLIPR assay relative to control. The class given is functional, cell-based.
The target of the next data set is D(3) dopamine receptor (Rattus norvegicus, UniProt P19020).
Chain of D(3) dopamine receptor (P19020 whole entry): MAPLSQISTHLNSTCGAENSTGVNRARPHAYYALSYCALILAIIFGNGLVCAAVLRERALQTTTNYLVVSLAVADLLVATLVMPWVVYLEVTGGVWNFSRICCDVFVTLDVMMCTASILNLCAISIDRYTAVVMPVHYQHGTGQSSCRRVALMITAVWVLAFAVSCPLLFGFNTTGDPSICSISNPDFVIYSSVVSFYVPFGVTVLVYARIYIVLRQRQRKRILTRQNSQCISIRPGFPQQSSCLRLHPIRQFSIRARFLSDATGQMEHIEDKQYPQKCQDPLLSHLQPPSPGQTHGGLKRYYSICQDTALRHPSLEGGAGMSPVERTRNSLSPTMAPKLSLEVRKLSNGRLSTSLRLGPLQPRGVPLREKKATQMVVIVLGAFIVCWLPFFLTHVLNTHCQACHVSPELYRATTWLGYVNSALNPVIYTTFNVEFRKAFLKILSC
Data set [9] in a line: Tmax in Sprague-Dawley rat at 10 mg/kg, po by LC-MS/MS analysis. The data set is classed as ADME, organism-based. The following applies: in vivo.
For data set [10], the system named is Mus musculus. The settings on record: Kunming.
Description: Antipsychotic activity in po dosed Kunming mouse assessed as reduction in MK-801-induced hyperactivity pretreated for 60 mins followed by MK-801 challenge measured for 90 mins
Another data set deals with Histamine H3 receptor (Rattus norvegicus, UniProt Q9QYN8). In words: Displacement of [3H] methylhistamine from histamine H3 receptor in rat cerebral cotex homogenates after 30 mins by liquid scintillation counting.
Chain of Histamine H3 receptor (Q9QYN8 whole entry): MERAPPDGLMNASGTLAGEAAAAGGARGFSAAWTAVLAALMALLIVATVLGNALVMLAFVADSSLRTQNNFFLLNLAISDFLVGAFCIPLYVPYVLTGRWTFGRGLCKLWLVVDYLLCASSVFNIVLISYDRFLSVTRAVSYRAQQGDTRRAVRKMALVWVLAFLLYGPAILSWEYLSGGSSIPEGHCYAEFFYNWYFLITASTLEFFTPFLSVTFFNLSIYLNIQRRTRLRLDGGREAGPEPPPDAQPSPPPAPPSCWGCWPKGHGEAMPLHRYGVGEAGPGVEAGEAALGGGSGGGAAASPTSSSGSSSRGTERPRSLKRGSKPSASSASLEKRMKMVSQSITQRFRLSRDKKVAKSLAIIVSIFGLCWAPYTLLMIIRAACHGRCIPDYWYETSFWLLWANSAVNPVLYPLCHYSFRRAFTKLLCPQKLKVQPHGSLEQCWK
In data set [11] the target is T2, 5-hydroxytryptamine receptor 6 (Homo sapiens, UniProt P50406). The experiment in a line: biochemical.
T2 sequence (P50406 whole entry): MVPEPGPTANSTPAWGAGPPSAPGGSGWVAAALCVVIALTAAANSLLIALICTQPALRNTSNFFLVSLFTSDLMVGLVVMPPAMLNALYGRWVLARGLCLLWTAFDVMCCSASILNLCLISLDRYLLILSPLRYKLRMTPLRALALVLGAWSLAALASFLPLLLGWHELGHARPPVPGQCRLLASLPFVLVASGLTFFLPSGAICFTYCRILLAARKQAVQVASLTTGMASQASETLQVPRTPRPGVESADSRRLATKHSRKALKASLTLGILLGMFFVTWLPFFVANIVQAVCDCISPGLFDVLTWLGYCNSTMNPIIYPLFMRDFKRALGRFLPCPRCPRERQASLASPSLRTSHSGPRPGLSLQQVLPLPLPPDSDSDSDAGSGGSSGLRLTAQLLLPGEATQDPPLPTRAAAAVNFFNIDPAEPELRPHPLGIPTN
Data set [12] can be described thus: AUC (0 to t) in Sprague-Dawley rat at 1 mg/kg, iv by LC-MS/MS analysis. The class given is ADME, organism-based. The following applies: in vivo.
In data set [13] the target is T2, 5-hydroxytryptamine receptor 6. The experiment in a line: Agonist activity at serotonin 5-HT6 receptor (unknown origin) expressed in HEK293 cells assessed as induction of calcium flux at 10 uM after 60 mins by calcium 4-dye based FLIPR assay relative to control. The class given is functional, cell-based.
Data set [14] has as its target Sodium-dependent serotonin transporter (Rattus norvegicus, UniProt P31652). The experiment in a line: Displacement of [3H]-paroxetine from SERT in rat cerebral cotex homogenates after 10 mins by liquid scintillation counting.
Data set [15] deals with Adrenergic receptor alpha-2 (Rattus norvegicus, UniProt P22086+P19328+P22909). In words: Displacement of [3H]-rauwolscine from adrenergic alpha2 receptor in rat cerebral cotex homogenates after 60 mins by liquid scintillation counting.
In a further data set the target is D(2) dopamine receptor (Homo sapiens, UniProt P14416).
Chain of D(2) dopamine receptor (P14416 whole entry): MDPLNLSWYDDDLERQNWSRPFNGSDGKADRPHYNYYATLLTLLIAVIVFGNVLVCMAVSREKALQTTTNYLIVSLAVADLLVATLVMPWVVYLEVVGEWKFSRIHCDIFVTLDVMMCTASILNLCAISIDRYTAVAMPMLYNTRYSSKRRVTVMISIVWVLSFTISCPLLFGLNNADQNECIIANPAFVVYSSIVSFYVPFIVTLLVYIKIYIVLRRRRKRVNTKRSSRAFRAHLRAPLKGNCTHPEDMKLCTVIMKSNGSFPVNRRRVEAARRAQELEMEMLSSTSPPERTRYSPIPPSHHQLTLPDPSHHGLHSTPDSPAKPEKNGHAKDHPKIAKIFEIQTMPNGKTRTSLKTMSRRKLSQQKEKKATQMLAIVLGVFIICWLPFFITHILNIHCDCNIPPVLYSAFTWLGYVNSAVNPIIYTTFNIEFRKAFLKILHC
Data set [16] has as its target Muscarinic acetylcholine receptor M1 (Homo sapiens, UniProt P11229). The experiment in a line: Displacement of [3H]-QNB from M1 receptor (unknown origin) in cell membrane homogenates after 30 mins by liquid scintillation counting. Background: Loss of bound radioactivity is the signal in a displacement assay; it reports binding, not function.

The structures appear in SMILES notation.

Chain of Sodium-dependent serotonin transporter (P31652 whole entry): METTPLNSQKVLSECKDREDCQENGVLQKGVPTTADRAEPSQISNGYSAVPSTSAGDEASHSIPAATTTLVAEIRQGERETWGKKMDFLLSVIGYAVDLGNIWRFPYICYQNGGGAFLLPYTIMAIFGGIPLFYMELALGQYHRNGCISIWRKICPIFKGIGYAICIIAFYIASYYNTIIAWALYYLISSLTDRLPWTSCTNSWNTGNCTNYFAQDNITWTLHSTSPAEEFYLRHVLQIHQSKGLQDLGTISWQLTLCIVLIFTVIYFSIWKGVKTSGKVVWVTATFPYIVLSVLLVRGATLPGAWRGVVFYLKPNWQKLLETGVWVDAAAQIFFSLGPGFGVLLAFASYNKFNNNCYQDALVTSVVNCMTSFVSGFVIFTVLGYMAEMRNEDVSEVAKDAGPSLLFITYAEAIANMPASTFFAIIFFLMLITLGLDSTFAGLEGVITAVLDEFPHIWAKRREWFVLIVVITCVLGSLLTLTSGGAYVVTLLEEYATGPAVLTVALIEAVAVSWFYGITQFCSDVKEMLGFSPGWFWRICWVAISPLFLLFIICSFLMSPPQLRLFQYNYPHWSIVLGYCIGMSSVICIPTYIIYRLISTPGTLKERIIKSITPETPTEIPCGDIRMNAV
Chain of 5-hydroxytryptamine receptor 7 (P32305 whole entry): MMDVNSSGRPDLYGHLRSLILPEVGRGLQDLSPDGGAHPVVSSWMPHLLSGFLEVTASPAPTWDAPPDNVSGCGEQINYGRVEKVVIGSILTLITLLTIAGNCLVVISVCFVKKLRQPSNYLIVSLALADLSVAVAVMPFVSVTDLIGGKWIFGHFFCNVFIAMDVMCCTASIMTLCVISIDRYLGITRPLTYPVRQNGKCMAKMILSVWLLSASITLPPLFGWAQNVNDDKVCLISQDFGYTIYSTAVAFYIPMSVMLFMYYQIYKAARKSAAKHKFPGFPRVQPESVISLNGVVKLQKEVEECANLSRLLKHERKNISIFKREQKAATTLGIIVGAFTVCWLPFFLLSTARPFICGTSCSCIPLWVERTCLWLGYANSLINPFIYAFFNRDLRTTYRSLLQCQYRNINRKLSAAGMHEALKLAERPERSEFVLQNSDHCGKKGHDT
Chain of D(1A) dopamine receptor (P21728 whole entry): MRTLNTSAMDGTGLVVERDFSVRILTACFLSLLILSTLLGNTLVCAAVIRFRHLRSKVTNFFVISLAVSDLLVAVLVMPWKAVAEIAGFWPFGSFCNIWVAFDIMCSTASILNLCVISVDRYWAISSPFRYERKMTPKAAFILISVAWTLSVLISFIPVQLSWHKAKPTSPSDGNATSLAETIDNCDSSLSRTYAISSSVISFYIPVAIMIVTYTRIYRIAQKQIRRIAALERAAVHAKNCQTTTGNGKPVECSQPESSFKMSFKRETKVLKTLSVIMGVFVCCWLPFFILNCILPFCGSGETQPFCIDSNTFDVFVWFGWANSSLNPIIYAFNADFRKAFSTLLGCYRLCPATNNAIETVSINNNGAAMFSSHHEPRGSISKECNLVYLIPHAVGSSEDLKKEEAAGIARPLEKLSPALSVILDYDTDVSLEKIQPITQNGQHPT
Chain of Muscarinic acetylcholine receptor M1 (P11229 whole entry): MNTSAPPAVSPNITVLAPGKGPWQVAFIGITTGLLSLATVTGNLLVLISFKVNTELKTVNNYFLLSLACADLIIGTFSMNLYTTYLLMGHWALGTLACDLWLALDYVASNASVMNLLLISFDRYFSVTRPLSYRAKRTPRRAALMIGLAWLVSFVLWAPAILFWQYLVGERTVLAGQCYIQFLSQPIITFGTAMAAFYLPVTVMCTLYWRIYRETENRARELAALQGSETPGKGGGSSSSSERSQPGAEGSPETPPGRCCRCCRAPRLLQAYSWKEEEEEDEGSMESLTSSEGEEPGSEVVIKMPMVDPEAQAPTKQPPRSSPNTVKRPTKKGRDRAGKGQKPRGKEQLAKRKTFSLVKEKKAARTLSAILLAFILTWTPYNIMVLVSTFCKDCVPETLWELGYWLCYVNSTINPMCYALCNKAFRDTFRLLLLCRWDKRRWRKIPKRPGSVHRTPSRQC

In the case of `O=C(CCCCN1CCC(c2noc3cc(F)ccc23)CC1)c1cc2c3c(c1)CCN3C(=O)CC2`, the values for the IC50 (on D(1A) dopamine receptor; in [3]; at D(2) dopamine receptor) were 366 nM, 257 nM and 9.02 nM, respectively. Further, the values for the Activity result (in the data set on Mus musculus [1]; in the data set with Mus musculus [10]; in [13]) were “Non-Toxic”, “Dose-dependent effect” and 6%, respectively. For the same compound, the maximum concentration (Cmax) in data set [2] was determined as 3730 ng/mL. Also, the 50% effective dose (ED50) with Mus musculus [4] came to 78.62 mg/kg. Also, the Ki in [5] is 226 nM; on D(3) dopamine receptor, 1.66 nM; at Histamine H3 receptor, more than 1000 nM; in data set [11], 5.55 nM; in data set [14], more than 1000 nM; in data set [15], more than 1000 nM. The compound further had a Ki in data set [16] of more than 1000 nM. Besides, the bioavailability in data set [6] is 58.8%. The results for the AUC(0-t) in data set [7] and in data set [12] were 18500 ng·h/mL and 3140 ng·h/mL, respectively. The inhibition in [8] turned out to be 100%. In addition, the Tmax in data set [9] came to 1 h.
